# Experimental data: patent US7223533B2, “Cell surface proteins and use thereof as indicators of activation of cellular signal transduction pathways” (priority 1999, dated 2007)
# T1: Ste2 receptor (Saccharomyces cerevisiae, UniProt D6VTK4)
# T1 construct: Yeast cells coexpressing either the endogenous yeast receptor Ste2p; endogenous in cells; host or cells: S. cerevisiae MATa cells (strain CY1892 in the Sag1p-based ELISA)
# T1 sequence (D6VTK4 1-431): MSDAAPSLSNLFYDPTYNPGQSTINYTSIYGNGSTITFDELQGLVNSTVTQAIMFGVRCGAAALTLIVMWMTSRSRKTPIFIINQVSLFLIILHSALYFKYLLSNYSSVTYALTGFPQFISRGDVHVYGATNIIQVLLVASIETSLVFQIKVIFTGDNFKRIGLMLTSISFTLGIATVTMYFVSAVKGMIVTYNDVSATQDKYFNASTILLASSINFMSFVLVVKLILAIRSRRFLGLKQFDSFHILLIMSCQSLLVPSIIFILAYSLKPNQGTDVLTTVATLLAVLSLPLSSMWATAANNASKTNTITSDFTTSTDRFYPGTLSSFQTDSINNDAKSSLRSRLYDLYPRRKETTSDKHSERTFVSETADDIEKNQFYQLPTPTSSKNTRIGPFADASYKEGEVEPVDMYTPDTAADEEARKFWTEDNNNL
# T2: Ste2p (Saccharomyces cerevisiae, UniProt D6VTK4)
# T2 construct: Yeast cells coexpressing either the endogenous yeast receptor Ste2p; endogenous in cells; host or cells: S. cerevisiae MATa cells (strain CY1892 in the Sag1p-based ELISA)
# T2 sequence (D6VTK4 1-431): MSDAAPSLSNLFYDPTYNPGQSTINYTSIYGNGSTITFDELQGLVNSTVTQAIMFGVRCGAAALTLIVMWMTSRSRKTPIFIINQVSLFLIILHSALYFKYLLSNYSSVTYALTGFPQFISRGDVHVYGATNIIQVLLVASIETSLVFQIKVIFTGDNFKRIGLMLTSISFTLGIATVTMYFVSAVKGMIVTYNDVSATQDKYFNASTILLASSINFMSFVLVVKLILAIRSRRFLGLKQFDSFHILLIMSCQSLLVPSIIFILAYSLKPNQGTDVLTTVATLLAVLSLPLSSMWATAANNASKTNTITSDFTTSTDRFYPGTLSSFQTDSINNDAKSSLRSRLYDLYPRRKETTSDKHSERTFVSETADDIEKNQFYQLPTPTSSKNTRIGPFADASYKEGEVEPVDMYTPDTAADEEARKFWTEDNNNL
# What was measured:
# ML1a receptor = target: T3, ML1a receptor (Homo sapiens, UniProt P48039); assay: ELISA-like assay of endogenous Aga2 protein with Sag1p21-352; format: cell-based; conditions: yeast cells containing the ML1a receptor, peroxidase assay
# T3 construct: expressed in transfected cells; host or cells: S. cerevisiae (CY17353 in A11/A12; aga1 mutant CY19890 in A13), plasmid Cp2695 (PGKp-ML1aR)
# Procedure: (§1) Extraction of the endogenous Aga2 protein was effected with DTT, as before. Aliquots (25 microliters) of extracts were diluted with 75 microliters of 100 mM sodium bicarbonate, pH 9.5 and the resulting samples were incubated in 96-well polystyrene plates at 4° C. overnight.
# (§2) After washing the plates three times with PBS, pH 6.5, supplemented with 0.1% Tween 20, samples were blocked with the same buffer containing 3% bovine serum albumin at 37° C. for 1 hour. After blocking, the plates were incubated subsequently with EndoH-treated Sag1p^21-352 solution (0.5 mg/ml), 1000-fold diluted anti-Xpress antibodies (Invitrogen) and 5000-fold diluted sheep anti-mouse IgG conjugated with horseradish peroxidase (Amersham Pharmacia Biotech). Both Sag1p^21-352 and antibodies were dissolved in PBS, pH 6.5 supplemented with 3% BSA. Each incubation was conducted at room temperature for 1 hr and was followed by three washes with PBS, pH 6.5, 0.1% Tween 20. Finally, the peroxidase activities in each well were determined using tetramethyl benzidine as a substrate. If the Aga2 protein were present in the plate, the Sag1p^21-352 should bind to it, the anti-Xpress antibody binds to the Sag1p^21-352 fusion protein, and the sheep anti-mouse IgG antibodies bind specifically to the anti-Xpress antibody.
# [1] = target: T4, human melatonin 1a receptor (Homo sapiens, UniProt P48039); assay: Western blot of DTT-extracted Aga2-HA; format: cell-based; conditions: increasing concentrations of ligand vs absence
# T4 construct: expressed in transfected cells; host or cells: S. cerevisiae (CY17353 in A11/A12; aga1 mutant CY19890 in A13), plasmid Cp2695 (PGKp-ML1aR)
# Procedure: (§3) The cells (TOD600=1.5) were pelleted, washed with ice-cold 0.15 M sodium chloride, resuspended in 50 microliters of 25 mM Tris-HCl, pH 8.5, supplemented with 10 mM dithiothreitol (DTI) and incubated for1 hour at 4° C. This DTT incubation step reduced the disulfide bonds between the Aga1 and Aga2 proteins, thereby releasing Aga2 into the extracellular medium. After centrifugation, 50 microliter aliquots of the supernatants were subjected to Western blot analysis. Immunoreactive bands corresponding to Aga2-HA were visualized using HA.11 antibodies (BAbCo) as primary antibodies, sheep anti-mouse IgG conjugated with horseradish peroxidase (Amarsham Pharmacia Biotech) as secondary antibodies, and peroxidase substrate (e.g., tetramethyl benzidine (Pierce)) for a visual readout.
# [2] = target: T5, human melatonin 1a receptor (ML1aR) (Homo sapiens, UniProt P48039); assay: ELISA of DTT-extracted cell surface Aga2-HA induction (HA.11 antibody, HRP readout); format: cell-based; conditions: for HRP activity: yeast cells, Aga2-HA
# T5 construct: expressed in transfected cells; host or cells: S. cerevisiae (CY17353 in A11/A12; aga1 mutant CY19890 in A13), plasmid Cp2695 (PGKp-ML1aR)
# Procedure: as §3
# (§4) Western blot analysis is a qualitative, rather than quantitative methodology. To determine the induction of expression of the Aga2 protein quantitatively, an ELISA strategy was utilized. Cells were cultured, treated, and the Aga2 protein extracted from the cell surface by DTT incubation, as above. Aliquots of these DTT extracts (50 microliters in the case of cells utilizing the Ste2 receptor and 5 microliters in other cases) were diluted to 100 microliters with 100 mM sodium bicarbonate, pH 9.5. Samples were incubated in 96-well polystyrene plates at 4 degrees C overnight. Plates were washed three times with PBS, pH 7.2 supplemented with 0.1% Tween 20 and blocked with the same buffer containing 3% bovine serum albumin at 37° C. for 1 hr. After blocking, the plates were incubated subsequently with 5000-fold diluted HA.11 antibodies (BAbCo) and 5000-fold diluted sheep anti-mouse IgG conjugated with horseradish peroxidase (Amersham Pharmacia Biotech). Each incubation was conducted at room temperature for 1 hr and was followed by three washes with PBS, pH 7.2, 0.1% Tween 20. The peroxidase activities in each well were determined using tetramethyl benzidine as a substrate.
# ML1aR = target: T6, ML1aR (Homo sapiens, UniProt P48039); assay: Scintillation proximity assay of secreted HA-tagged Aga2p (aga1 mutant strain CY19890); format: cell-based; conditions: 1 μM melatonin
# T6 construct: expressed in transfected cells; host or cells: S. cerevisiae (CY17353 in A11/A12; aga1 mutant CY19890 in A13), plasmid Cp2695 (PGKp-ML1aR)
# Procedure: A particular embodiment of these types of cell-free Aga2 assays is the scintillation proximity assay. In this technique, the extracellular medium potentially containing the Aga2 protein is incubated with antibodies specific for Aga2. These antibodies are also biotinylated, and thus the antibody-Aga2 complex can be tethered to the surface of SPA beads coated with streptavidin (and also containing scintillant). Sag1p^21-352 is radiolabeled with, e.g., ^125I or ^3H, and is incubated with the Aga2-loaded beads. Binding of the fusion protein to the immobilized Aga2 protein brings the radiolabel in proximity to the scintillant contained within the beads, resulting in the emission of light. This emission can be readily quantitated using a scintillation counter. The presence of light indicates the presence of the Aga2 protein, and thus that the pheromone response pathway was activated in the yeast cells by the test compound via the G protein coupled receptor.
# The following experiment was conducted in order to test the utility of the scintillation proximity assay for the detection of Aga2p induction mediated by heterologous receptors in yeast. […] One hundred microliter aliquots of culture media were placed into a 96-well plate and the following solutions were added to each well: 20 μl of 0.5 M sodium phosphate, pH 6.0, 1.5 M sodium chloride, 1% Tween 20, 10% BSA; 0.25 μg of SPA beads (Amersham) coated with biotinylated HA.11 antibodies (BAbCo) in 25 μl of PBS (20 mM sodium phosphate, pH 7.2, 0.15 M sodium chloride) and 25 μl of PBS containing [1^25,]-Sag1p^21-352 (250,000 cpm). SPA beads were prepared as follows. Fifty milligrams of streptavidin-coated yttrium silicate beads were incubated in 2 ml of PBS containing 1% BSA, 0.1% Tween 20 and 0.5 mg biotinylated HA. 11 antibodies for 4 hr at room temperature. The beads were washed three times with PBS and resuspended in 1 ml of the same buffer. Sag1p^21-352 was iodinated according to standard protocols using lactoperoxidase.
# Light emission was quantitated using a scintillation counter after incubation of the plate at room temperature for 1 hr, 2 hr and 6 hr.
# Ste2 receptor = target: T1, Ste2 receptor; assay: ELISA-like assay of endogenous Aga2 protein with Sag1p21-352, anti-Xpress antibodies and HRP conjugate; format: cell-based, S. cerevisiae; conditions: yeast cells containing the Ste2 receptor, peroxidase assay
# Procedure: as §1, §2
# Ste2p [3] = target: T2, Ste2p; assay: ELISA of DTT-extracted cell surface Aga2-HA induction (HA.11 antibody, HRP readout); format: cell-based, S. cerevisiae; conditions: for HRP activity: yeast cells, Aga2-HA
# Procedure: as §3, §4
# Ste2p [4] = target: T2, Ste2p; assay: Western blot of DTT-extracted Aga2-HA; format: cell-based, S. cerevisiae; conditions: increasing concentrations of ligand vs absence
# Procedure: as §3
# [5] = tested on: intact MATa cells (strain CY1892); assay: Binding of Sag1p21-352 to yeast cell surface (Western blot of SDS extracts); set-up: species or system S. cerevisiae; conditions: cells with or without 100 nM α-factor; 30° C., 30 min
# Procedure: To ensure that this truncation of the Sag1 protein retained full binding activity to α-agglutinin, and more specifically, the Aga2 protein, binding assays were performed. […] The cells (TOD600=1) were pelleted and resuspended in 0.15 ml of the same media supplemented with varying concentrations of Sag1p^21-352. After incubation at 30° C. for 30 min, the cells were washed three times with the same media and incubated in the presence of 2% SDS for 5 min to release Sag1p^21-352 bound to the cell surface. The SDS extracts were subjected to Western blot analysis. The immunoreactive bands corresponding to Sag1p^21-352 were visualized using anti-Xpress antibodies (Invitrogen), as above.
# T5 sequence (P48039 whole entry): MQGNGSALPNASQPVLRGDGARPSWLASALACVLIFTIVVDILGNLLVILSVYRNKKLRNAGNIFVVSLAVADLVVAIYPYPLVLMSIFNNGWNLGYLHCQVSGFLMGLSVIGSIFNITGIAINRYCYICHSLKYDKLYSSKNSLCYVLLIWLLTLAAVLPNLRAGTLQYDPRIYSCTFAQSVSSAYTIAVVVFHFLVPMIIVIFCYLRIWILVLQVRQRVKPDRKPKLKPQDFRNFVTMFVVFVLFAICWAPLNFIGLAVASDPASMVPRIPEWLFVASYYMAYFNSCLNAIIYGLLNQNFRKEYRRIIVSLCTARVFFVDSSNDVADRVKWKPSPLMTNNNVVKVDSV
# T6 sequence (P48039 whole entry): as above
# T4 sequence (P48039 whole entry): as above
# T3 sequence (P48039 whole entry): as above
molecule,measurement,setting,value
COc1ccc2[nH]cc(CCNC(C)=O)c2c1 [melatonin],induction of the Aga2 protein,ML1a receptor,dose-dependent response
same,expression level of the Aga2 protein,[1],substantial increase
same,HRP activity,[2]; [Ligand] 1 × 10^−6 M,1.112
same,HRP activity,[2]; [Ligand] 1.13 × 10^−7 M,0.829
same,HRP activity,[2]; [Ligand] 1.95 × 10^−9 M,0.278
same,HRP activity,[2]; [Ligand] 3.13 × 10^−8 M,0.767
same,HRP activity,[2]; [Ligand] 4.88 × 10^−10 M,0.154
same,HRP activity,[2]; [Ligand] 5 × 10^−7 M,1.216
same,HRP activity,[2]; [Ligand] 7.81 × 10^−9 M,0.427
same,Induction factor,"[2]; cell surface Aga2-HA, ML1aR",19
same,increase in the levels of HA-tagged Aga2p in the culture media,ML1aR; scintillation proximity assay,approximately 3 fold
same,Induction factor,ML1aR; incubation time 1 hr,2.5
same,Induction factor,ML1aR; incubation time 2 hr,2.6
same,Induction factor,ML1aR; incubation time 6 hr,3.1
α-factor,induction of the Aga2 protein,Ste2 receptor,dose-dependent response
same,HRP activity,Ste2p [3]; [Ligand] 1.13 × 10^−7 M,2.163
same,HRP activity,Ste2p [3]; [Ligand] 2 × 10^−6 M,2.332
same,HRP activity,Ste2p [3]; [Ligand] 3.13 × 10^−8 M,0.548
same,HRP activity,Ste2p [3]; [Ligand] 5 × 10^−7 M,2.498
same,HRP activity,Ste2p [3]; [Ligand] 7.81 × 10^−9 M,0.280
same,Induction factor,"Ste2p [3]; cell surface Aga2-HA, Ste2p",15
same,expression level of the Aga2 protein,Ste2p [4],substantial increase
"Sag1p^21-352: N-terminal portion of Sag1p (α-agglutinin, residues 21–352) bearing a polyhistidine tag, Xpress epitope and enterokinase cleavage site (protein, left off: small tags and cut ends) NINDITFSNLEITPLTANKQPDQGWTATFDFSIADASSIREGDEFTLSMPHVYRIKLLNSSQTATISLADGTEAFKCYVSQQAAYLYENTTFTCTAQNDLSSYNTIDGSITFSLNFSDGGSSYEYELENAKFFKSGPMLVKLGNQMSDVVNFDPAAFTENVFHSGRSTGYGSFESYHLGMYCPNGYFLGGTEKIDYDSSNNNVDLDCSSVQVYSSNDFNDWWFPQSYNDTNADVTCFGSNLWITLDEKLYDGEMLWVNALQSLPANVNTIDHALEFQYTCLDTIANTTYATQFSTTREFIVYQGRNLGTASAKSSFISTTTTDLTSINTSAY",binding to the cell surface of intact MATa cells,[5],bound to the cell surface of intact MATa cells only after these cells were treated with α-factor
